Assays:
Cytochrome P450 (CYP) = assay: Fraction of CYP-mediated oxidative metabolism (fmCYP) in human hepatocytes with/without ABT; format: in vitro ADME
Description: The relative contribution of P450 s in the overall metabolism of a compound was determined from the clearance of the drug in an assay using human hepatocytes in the presence and absence of the pan P450 inhibitor 1-aminobenzotriazole (ABT). The intrinsic clearance was determined in cryopreserved human hepatocytes essentially as described in McGinnity D F, et al. (2004) Evaluation of fresh and cryopreserved hepatocytes as in vitro drug metabolism tools for the prediction of metabolic clearance. Drug Metab Dispos 32:1247-1253. Generally, the assay incubations contain 0.3 μM test compound and 10^6 cells/mL hepatocytes, with or without 0.5 hr. pre-incubation with ABT (1 mM). Parent compound loss is measured by LC/MS after 15, 30, 60 and 90 min. incubation. The intrinsic clearance (μL/min/10^6 cells) is calculated using the following equation for both ±ABT. The fraction of metabolism by CYP is the percentage of inhibition by ABT.
CLint=−kdep×incubation volume/10^6 cells,
in which the kdep, the substrate depletion constant (min^−1), is the slope determined using linear regression from the log transformed % remaining on the y-axis vs time on the x-axis (min^−1).

CYP3A4 [1] = molecular target: T1, CYP3A4 (Homo sapiens (Human), UniProt P08684); assay: Calculation of fraction of compound cleared through CYP3A4 metabolism (fmCYP3A4); conditions: fmCYP × fm3A4_RCP (worst-case fm3A4_RCP = 1)
From the text: The fraction of overall clearance of a drug via oxidative metabolism by the cytochrome P450 (CYP) is an important indication for potential victim drug-drug interaction mediated adverse effects. (see generally Ogu, Chris C., and Maxa, Jan L., Drug interactions due to cytochrome P450, BUMC Proceedings 2000; 13:421-423.) The greater fraction of overall clearance for a given drug that goes though a CYP oxidation pathway, particularly exclusively through a single CYP, as for example CYP3A4, the greater the potential that the drug may be found susceptible to undesired victim drug-drug interactions when used in therapy. To determine the fmCYP3A4 (the fraction of metabolism via CYP3A4), the fraction of P450-mediated oxidation, (fmCYP) is first determined in human hepatocytes. The relative contribution of CYP3A4 mediated oxidation (fmCYP3A4_RCP) over other P450 s is then determined using a recombinant CYP phenotyping assay (RCP). The fmCYP3A4 is calculated using the following equation:
fmCYP3A4=fmCYP×fmCYP3A4_RCP
The renal and biliary excretion of test compounds is tested in bile-duct cannulated dogs essentially according to Burkey J L, et al. (2002) Disposition of LY333531, a selective protein kinase C beta inhibitor, in the Fischer 344 rat and beagle dog. Xenobiotica 32:1045-1052. […] The fraction of compound cleared through CYP3A4 metabolism is calculated using the equation below: […]

[2] = Fraction of drug unbound in human liver microsomes (fumic); format: in vitro ADME
From the text: fumic is the fraction of drug unbound in human liver microsomes

CYP3A4 [3] = molecular target: T1, CYP3A4; assay: Recombinant CYP phenotyping assay (fmCYP3A4_RCP); format: in vitro ADME; conditions: not examined in RCP assay; worst case of 100% metabolized by CYP3A4 assumed
Description: The relative fraction of a compound's metabolism contributed by a given CYP, as for example CYP3A4, of the total P450 metabolism of the compound may be determined as follows:
A panel of 9 human recombinant CYPs (rCYPs) provided as Supersomes (BD Gentest, Woburn, MA), including rCYPs 1A2, 2B6, 2C8, 2C9, 2C19, 2D6, 2J2, 3A4, and 3A5, are evaluated for compound metabolism (see generally Cannady E A, et al. (2015) Evacetrapib: in vitro and clinical disposition, metabolism, excretion, and assessment of drug interaction potential with strong CYP3A and CYP2C8 inhibitors. Pharmacol Res Perspect 3:e00179). […]
in which kdep is the substrate depletion rate constant (min^−1), pmol rCYP is the lot-specific amount of rCYP in the incubation, and relative activity factor (RAF) is a relative activity factor (pmol/mg) appropriate for the rCYPs/HLMs pair. The rate constant is determined in-house by experiment, the slope determined using linear regression from the log transformed % remaining on the y-axis vs time on the x-axis (min^−1). pmol rCYP and RAF are vender supplied constenats for the supersome.
The fraction of CYP3A4-mediated metabolism (fmCYP3A4_RCP) is determined by dividing the HLM-scaled CLint of CYP3A4 by the sum of the HLM-scaled CL1nt for each P450 subtype assayed (Cannady et al., 2015).

C[C@H]1c2ccc(F)c(CCC(C)(C)O)c2C[C@H](CO)N1C(=O)Cc1c(F)cccc1Cl [Example 7, 2-(2-chloro-6-fluoro-phenyl)-1-[(1S,3R)-6-fluoro-3-(hydroxymethyl)-5-(3-hydroxy-3-methyl-butyl)-1-methyl-3,4-dihydro-1H-isoquinolin-2-yl]ethanone]
route of metabolism in hepatocytes (Cytochrome P450 (CYP)): primarily metabolized through non-oxidative processes | fmCYP (Cytochrome P450 (CYP); CLint ±ABT (1 mM), 0.3 μM compound): 0.322 | fractions metabolized by CYPs (Cytochrome P450 (CYP); ±ABT): 32.3% | fmCYP3A4 (CYP3A4 [1]): 0.322 | fumic [2]: 0.392 | fm3A4_RCP (CYP3A4 [3]): 1
